For series [1] the following is noted: short acting NO donor, vendor reagent (Alexis); cited from earlier work.
Series [2] concerns TR4. The settings on record: C2C12 cells, 250 μM H2O2 for 2 h; mRNA at 4 hr, protein at 8 hr.
Method: The levels of TR4 mRNA and proteins were measured by Q-PCR and Western blotting analyses.
To dissect potential molecular mechanism by which TR4 is involved in the ROS/DNA damage/DNA repair signal cascades, TR4 expression levels were examined upon exposure to genotoxic stress (such as H2O2).
Series [3] deals with TR4. Put plainly: Stress-induced TR4 expression in wt MEF. The format is cell-based, mice. The conditions noted are these: wt MEF treated with cobalt chloride to mimic hypoxia stress.

The structures appear in SMILES notation.

Regarding `Nc1n[n+](-c2ccc(Cl)c(Cl)c2)no1.[Cl-]` [GEA 3162, 1,2,3,4-oxatriazolium, 5-amino-3-(3,4-dichlorophenyl)-chloride], in series [1], the halftime was about 3 min.
Turning to `OO` [H2O2, hydrogen peroxide], in series [2], the “TR4 mRNA and protein expression” value is given as “increased”.
For `[Cl][Co][Cl]` [cobalt chloride], the TR4 expression entry in series [3] was “up-regulated”.

The record behind these values is patent US20090012019A1, “Methods and Compositions Related to TR4” (priority 2005, published 2009).
